Test results published in patent US11136325B2, “Pyrrolopyrimidine and pyrrolopyridine derivatives” (GALAPAGOS NV, priority 2017, dated 2021).

Test system: CFA induced hypersensitivity in rat
Assay: CFA induced hypersensitivity in rat assessed using weight bearing method
Assay type: in vivo
Conditions: 10 mg/kg, 24 hours post CFA, 1, 2 and 4 hours post treatment
Excerpt: Intraplantar injection of Complete Freunds adjuvant (CFA) causes an inflammatory reaction which induces hypersensitivity and oedema, and mimics some aspects of clinical inflammatory pain. These effects can be investigated using equipment to measure weight bearing and plethysmometer.
Naive rats distribute their body weight equally between the two hind paws. However, when the injected (left) hind paw is inflamed and/or painful, the weight is re-distributed so that less weight is put on the affected paw (decrease in weight bearing on injured paw). Weight bearing through each hind limb was measured using a rat incapacitance tester (Linton Instruments, UK).
Rats were placed in the incapacitance tester with the hind paws on separate sensors and the average force exerted by both hind limbs was recorded over 4 seconds.
Base line weight bearing and paw volume readings were taken and hypersensitivity was induced via injection of CFA (Baseline weight bearing and paw volume recordings were taken prior to induction of insult. Inflammatory hypersensitivity was induced by intraplantar injection of CFA (100 μL of 1 mg/mL solution) intraplantar to the rats left hind paw.
Animals (Male, Sprague Dawley Rats (Charles River, UK), 212-260 g) were ranked and randomised to treatment groups according to the weight bearing CFA window in a Latin square design. […]

SMILES: COc1ccc2c(c1)c(CC(=O)O)c(C)n2C(=O)c1ccc(Cl)cc1 [Indomethacin, reference compound]
- hypersensitivity response (weight bearing): significantly inhibited
